Values quoted from earlier work as cited in patent publication US20080255200A1, “SUBSTITUTED BENZIMIDAZOLES” (AUSPEX PHARMACEUTICALS, INC., priority 2007, published 2008).

Target: gastric H^+, K^+-ATPase (Homo sapiens, UniProt P20648)
Settings: intragastric pH over 4, orally administered

Chain of gastric H^+, K^+-ATPase (P20648 whole entry): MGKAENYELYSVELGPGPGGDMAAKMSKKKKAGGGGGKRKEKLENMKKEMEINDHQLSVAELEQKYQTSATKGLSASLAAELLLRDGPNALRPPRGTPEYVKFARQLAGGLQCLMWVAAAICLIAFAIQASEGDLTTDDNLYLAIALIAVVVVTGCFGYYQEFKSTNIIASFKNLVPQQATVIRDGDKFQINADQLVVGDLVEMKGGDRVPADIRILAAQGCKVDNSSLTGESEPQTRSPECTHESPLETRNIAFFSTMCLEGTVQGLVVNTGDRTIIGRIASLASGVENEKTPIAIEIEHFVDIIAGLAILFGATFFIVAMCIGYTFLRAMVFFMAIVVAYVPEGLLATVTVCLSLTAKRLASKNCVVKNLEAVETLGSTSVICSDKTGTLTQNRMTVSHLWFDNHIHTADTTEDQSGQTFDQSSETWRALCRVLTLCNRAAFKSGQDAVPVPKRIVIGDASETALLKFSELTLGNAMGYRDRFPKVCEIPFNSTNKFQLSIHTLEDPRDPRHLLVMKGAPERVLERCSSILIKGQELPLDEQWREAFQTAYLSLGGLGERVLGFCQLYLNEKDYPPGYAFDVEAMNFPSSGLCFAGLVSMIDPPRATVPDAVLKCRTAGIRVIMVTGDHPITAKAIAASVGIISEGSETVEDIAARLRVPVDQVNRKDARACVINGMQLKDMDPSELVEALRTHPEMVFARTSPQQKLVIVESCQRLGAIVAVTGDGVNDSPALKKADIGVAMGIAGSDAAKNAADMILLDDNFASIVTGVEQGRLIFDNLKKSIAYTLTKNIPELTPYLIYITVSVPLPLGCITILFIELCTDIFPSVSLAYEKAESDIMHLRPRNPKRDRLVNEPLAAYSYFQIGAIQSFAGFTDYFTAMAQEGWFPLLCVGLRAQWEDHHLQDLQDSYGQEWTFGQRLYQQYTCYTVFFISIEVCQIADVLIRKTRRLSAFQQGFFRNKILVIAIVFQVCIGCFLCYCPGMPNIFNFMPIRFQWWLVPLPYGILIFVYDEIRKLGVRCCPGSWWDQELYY
Chain of gastric H^+, K^+-ATPase (P51164 whole entry partner): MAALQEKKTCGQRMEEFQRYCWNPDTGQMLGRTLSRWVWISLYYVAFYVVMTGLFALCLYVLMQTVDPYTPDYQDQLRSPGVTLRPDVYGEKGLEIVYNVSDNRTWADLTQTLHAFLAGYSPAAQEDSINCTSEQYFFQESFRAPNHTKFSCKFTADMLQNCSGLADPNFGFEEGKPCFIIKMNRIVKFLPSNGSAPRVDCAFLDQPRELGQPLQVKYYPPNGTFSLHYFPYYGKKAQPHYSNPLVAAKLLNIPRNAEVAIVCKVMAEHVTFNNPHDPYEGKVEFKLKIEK

## COc1ccnc(C[S+]([O-])c2nc3cc(-n4cccc4)ccc3[nH]2)c1C (stereo not shown) [Ilaprazole, 2-(4-methoxy-3-methyl-pyridin-2-ylmethanesulfinyl)-5-pyrrol-1-yl-1H-benzoimidazole]
  average time intragastric pH is increased to over 4: 20.5 hours
